Test results from patent US12655116B2, “Substituted isophthalic acid diamides” (Bayer Aktiengesellschaft, priority 2020, dated 2026).

Tests used:
SETVI [1] = assay: Pre-emergence herbicidal action against SETVI; format: in vivo, Setaria viridis
Outline: (§1)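 Herbicidal effect was assessed 3 weeks after treatment by visual comparison with untreated controls, 100% denoting dead plants. Aqueous WP or EC preparations had been applied at 600 to 800 l/ha with 0.2% wetting agent to the soil covering freshly sown seeds.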

ABUTH [2] = assay: Post-emergence herbicidal action against ABUTH; format: in vivo, Abutilon theophrasti; conditions: visual assessment about 3 weeks after treatment vs untreated controls
Outline: (§2)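 Herbicidal effect was scored visually in percent after about 3 weeks in the greenhouse. Plants had been raised in sandy loam and treated post-emergence at the one-leaf stage with formulated compound at 600 to 800 l/ha water plus 0.2% wetting agent.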

AVEFA [3] = assay: Pre-emergence herbicidal action against AVEFA; format: in vivo, Avena fatua; conditions: 80 g/ha, pre-emergence
Outline: as §1

ABUTH [4] = assay: Pre-emergence herbicidal action against ABUTH; format: in vivo, Abutilon theophrasti; conditions: for Pre-emergence action against ABUTH (herbicidal activity): 80 g/ha, scored visually after 3 weeks vs untreated controls (100% = plants have died, 0% = like control plants); for Pre-emergence action against ABUTH (herbicidal activity in percent): dosage 20 g/ha, scored visually after 3 weeks vs untreated controls, 100% = plants have died, 0% = like control plants
Outline: as §1

VIOTR [5] = assay: Pre-emergence herbicidal action against VIOTR; format: in vivo, Viola tricolor
Outline: as §1

DIGSA [6] = assay: Post-emergence herbicidal action against DIGSA; format: in vivo, Digitaria sanguinalis; conditions: for Post-emergence action against DIGSA: 20 g/ha
Outline: as §2

DIGSA [7] = assay: Pre-emergence herbicidal action against DIGSA; format: in vivo, Digitaria sanguinalis
Outline: as §1

ALOMY [8] = assay: Pre-emergence herbicidal action against ALOMY; format: in vivo, Alopecurus myosuroides; conditions: for Pre-emergence action against ALOMY (herbicidal activity): 80 g/ha, scored visually after 3 weeks vs untreated controls (100% = plants have died, 0% = like control plants)
Outline: as §1

PHBPU [9] = assay: Post-emergence herbicidal action against PHBPU; format: in vivo, Pharbitis purpurea
Outline: as §2

MATIN [10] = assay: Pre-emergence herbicidal action against MATIN; format: in vivo, Matricaria inodora
Outline: as §1

ALOMY [11] = assay: Post-emergence herbicidal action against ALOMY; format: in vivo, Alopecurus myosuroides; conditions: dosage 20 g/ha, visual assessment about 3 weeks after treatment vs untreated controls
Outline: as §2

VERPE [12] = assay: Post-emergence herbicidal action against VERPE; format: in vivo, Veronica persica; conditions: 20 g/ha
Outline: as §2

ECHCG [13] = assay: Post-emergence herbicidal action against ECHCG; format: in vivo, Echinochloa crus-galli
Outline: as §2

AMARE [14] = assay: Pre-emergence herbicidal action against AMARE; format: in vivo, Amaranthus retroflexus
Outline: as §1

AVEFA [15] = assay: Post-emergence herbicidal action against AVEFA; format: in vivo, Avena fatua; conditions: visual assessment about 3 weeks after treatment, 100% = plants have died, 0% = like control plants
Outline: as §2

AMARE [16] = assay: Post-emergence herbicidal action against AMARE; format: in vivo, Amaranthus retroflexus; conditions: 20 g/ha, visual assessment about 3 weeks after treatment, 100% = plants have died, 0% = like control plants
Outline: as §2

VERPE [17] = assay: Pre-emergence herbicidal action against VERPE; format: in vivo, Veronica persica
Outline: as §1

ECHCG [18] = assay: Pre-emergence herbicidal action against ECHCG; format: in vivo, Echinochloa crus-galli
Outline: as §1

SETVI [19] = assay: Post-emergence herbicidal action against SETVI; format: in vivo, Setaria viridis
Outline: as §2

POLCO = assay: Pre-emergence herbicidal action against POLCO; format: in vivo, Polygonum convolvulus; conditions: dosage 80 g/ha
Outline: as §1

PHBPU [20] = assay: Pre-emergence herbicidal action against PHBPU; format: in vivo, Pharbitis purpurea; conditions: dosage 80 g/ha
Outline: as §1

VIOTR [21] = assay: Post-emergence herbicidal action against VIOTR; format: in vivo, Viola tricolor
Outline: as §2

MATIN [22] = assay: Post-emergence herbicidal action against MATIN; format: in vivo, Matricaria inodora; conditions: dosage 20 g/ha
Outline: as §2

[23] = 20 g/ha, scored visually after 3 weeks vs untreated controls, 100% = plants have died, 0% = like control plants
[24] = 80 g/ha, scored visually after 3 weeks vs untreated controls (100% = plants have died, 0% = like control plants)

SMILES	Pre-emergence action against SETVI in % (SETVI [1]; dosage 20 g/ha) [%]	Pre-emergence action against SETVI in % (SETVI [1]; dosage 80 g/ha) [%]	Post-emergence action against ABUTH in % (ABUTH [2]; dosage 20 g/ha) [%]	Pre-emergence action against AVEFA in % (AVEFA [3]) [%]	Pre-emergence action against ABUTH (herbicidal activity) (ABUTH [4]) [%]	Pre-emergence action against ABUTH (herbicidal activity in percent) (ABUTH [4]) [%]	Pre-emergence action against VIOTR in % (VIOTR [5]; dosage 20 g/ha) [%]	Pre-emergence action against VIOTR in % (VIOTR [5]; dosage 80 g/ha) [%]	Post-emergence action against DIGSA (DIGSA [6]) [%]	Pre-emergence action against ALOMY (herbicidal activity) (ALOMY [8]) [%]	Post-emergence action against PHBPU in % (PHBPU [9]; dosage 20 g/ha) [%]	Pre-emergence action against MATIN in % (MATIN [10]; dosage 20 g/ha) [%]	Pre-emergence action against MATIN in % (MATIN [10]; dosage 80 g/ha) [%]	Post-emergence action against ALOMY in % (ALOMY [11]) [%]	Post-emergence action against VERPE in % (VERPE [12]) [%]	Post-emergence action against ECHCG in % (ECHCG [13]; dosage 20 g/ha) [%]	Pre-emergence action against AMARE in % (AMARE [14]; [23]) [%]	Pre-emergence action against AMARE in % (AMARE [14]; [24]) [%]	Post-emergence action at 20 g/ha against AVEFA in % (AVEFA [15]) [%]	Post-emergence action at 20 g/ha against AMARE in % (AMARE [16]) [%]	other results
CCn1nnnc1NC(=O)c1ccc(C(F)(F)F)c(C(=O)NCCOC)c1C [Example 2-34]	100	100	90	90	100	80	100	100	100	90	100	90	100	100	80	100	90	100	80	100	Post-emergence action against ABUTH in % (ABUTH [2]; dosage 5 g/ha): 90%; Post-emergence action against DIGSA in % (DIGSA [6]; 5 g/ha): 80%; Pre-emergence action against DIGSA in % (DIGSA [7]; dosage 20 g/ha): 100%; Pre-emergence action against DIGSA in % (DIGSA [7]; dosage 80 g/ha): 100%; Pre-emergence action against ALOMY (ALOMY [8]; 20 g/ha, scored visually after 3 weeks, 100% = plants have died, 0% = like control plants): 80%; Post-emergence action against PHBPU in % (PHBPU [9]; dosage 5 g/ha): 90%; Post-emergence action against ECHCG in % (ECHCG [13]; dosage 5 g/ha): 90%; Post-emergence action at 5 g/ha against AVEFA in % (AVEFA [15]; 5 g/ha): 80%; Pre-emergence action against VERPE in % (VERPE [17]; dosage 20 g/ha): 90%; Pre-emergence action against VERPE in % (VERPE [17]; dosage 80 g/ha): 90%; Pre-emergence action against ECHCG in % (ECHCG [18]; 80 g/ha): 90%; Post-emergence action against SETVI in % (SETVI [19]; dosage 5 g/ha): 80%; Post-emergence action against SETVI in % (SETVI [19]; dosage 20 g/ha): 90%; Pre-emergence action against POLCO in % (POLCO): 90%; Pre-emergence action against PHBPU in % (PHBPU [20]): 80%
CCNC(=O)c1c(C(F)F)ccc(C(=O)Nc2nnnn2CC)c1Br [Example 2-226]	80	100	90	100	80	80	100	100	80	90	80	90	100	90	90	90	100	100	80	100	Post-emergence action against VIOTR in % (VIOTR [21]; 5 g/ha): 90%; Post-emergence action against VIOTR in % (VIOTR [21]; 20 g/ha): 100%; Post-emergence action against MATIN in % (MATIN [22]): 80%; Pre-emergence action against VERPE in % (VERPE [17]; dosage 80 g/ha): 100%; Pre-emergence action against ECHCG in % (ECHCG [18]; 20 g/ha): 100%; Pre-emergence action against ECHCG in % (ECHCG [18]; 80 g/ha): 100%; Post-emergence action against SETVI in % (SETVI [19]; dosage 5 g/ha): 100%; Post-emergence action against SETVI in % (SETVI [19]; dosage 20 g/ha): 100%; Pre-emergence action against POLCO in % (POLCO): 80%; Pre-emergence action against PHBPU in % (PHBPU [20]): 100%
